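Following 48 hours of exposure in 96-well plates, responses at five concentrations were used to interpolate endpoints linearly. Abbreviation: GI50, concentration required for 50% inhibition of growth.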 Activity calls are given as the source filed them. No stated cut-off is given here; in the data, active = GI50 up to about 1.1 µM and inactive = higher.
How the values were obtained:
Assay in all cases: NCI tumour cell line growth inhibition, 48 h
[1] = system: OVCAR-3
[2] = system: NCI-H522
[3] = system: A549
[4] = system: ACHN
[5] = system: SN12C
[6] = system: SK-MEL-2
[7] = system: HOP-18
[8] = system: UO-31
[9] = system: CAKI-1
[10] = system: NCI-H460
[11] = system: SNB-75
[12] = system: HCT-116
[13] = system: SW-620
[14] = system: UACC-62
[15] = system: K562
[16] = system: DMS-273
[17] = system: SF-268
[18] = system: HL-60
[19] = system: RXF 393
[20] = system: HCC 2998
[21] = system: OVCAR-8
[22] = system: UACC-257
[23] = system: MOLT-4
[24] = system: U-251
[25] = system: HOP-62
[26] = system: NCI-H226
[27] = system: SK-MEL-5
[28] = system: TK-10
[29] = system: KM12
[30] = system: M19-MEL
[31] = system: HT-29
[32] = system: LOX IMVI
[33] = system: RPMI-8226
[34] = system: OVCAR-5
[35] = system: COLO 205
[36] = system: NCI-H23
[37] = system: DLD-1
[38] = system: KM-20L2
[39] = system: SK-MEL-28
[40] = system: EKVX
[41] = system: SF-295
[42] = system: Malme-3M
[43] = system: SR
[44] = system: 786-0
[45] = system: SK-OV-3
[46] = system: IGROV-1
[47] = system: SNB-19
[48] = system: DMS-114
[49] = system: HCT-15
[50] = system: CCRF-CEM
[51] = system: M14
[52] = system: SF-539
[53] = system: XF498
[54] = system: HOP-92
[55] = system: SNB-78
[56] = system: OVCAR-4
[57] = system: LXFL 529
[58] = system: A498

For `O=C(Cc1ccccc1)NN1C(=O)C(Cl)C1c1ccc(O)cc1` (configuration not stated), the GI50 [1] was > 100 µM (inactive), the GI50 [2] was > 100 µM (inactive) and the GI50 [3] was > 100 µM (inactive). The GI50 [4] was > 100 µM (inactive), the GI50 [5] was > 100 µM (inactive) and the GI50 [6] was > 100 µM (inactive). The GI50 [7] was > 100 µM (inactive), the GI50 [8] was 64.7 µM (inactive) and the GI50 [9] was > 100 µM (inactive). For the same molecule, the GI50 [10] was > 100 µM (inactive), the GI50 [11] was 47.2 µM (inactive) and the GI50 [12] was > 100 µM (inactive). The GI50 [13] was > 100 µM (inactive), the GI50 [14] was > 100 µM (inactive) and the GI50 [15] was > 100 µM (inactive). For the same molecule, the GI50 [16] was > 100 µM (inactive), the GI50 [17] was > 100 µM (inactive) and the GI50 [18] was 62.7 µM (inactive). For the same molecule, the GI50 [19] was > 100 µM (inactive), the GI50 [20] was > 100 µM (inactive) and the GI50 [21] was > 100 µM (inactive). The GI50 [22] was > 100 µM (inactive), the GI50 [23] was > 100 µM (inactive) and the GI50 [24] was > 100 µM (inactive). For the same molecule, the GI50 [25] was > 100 µM (inactive), the GI50 [26] was > 100 µM (inactive) and the GI50 [27] was > 100 µM (inactive). The GI50 [28] was > 100 µM (inactive), the GI50 [29] was > 100 µM (inactive) and the GI50 [30] was > 100 µM (inactive). For the same molecule, the GI50 [31] was > 100 µM (inactive), the GI50 [32] was > 100 µM (inactive) and the GI50 [33] was > 100 µM (inactive). The GI50 [34] was > 100 µM (inactive), the GI50 [35] was > 100 µM (inactive) and the GI50 [36] was > 100 µM (inactive). For the same molecule, the GI50 [37] was > 100 µM (inactive), the GI50 [38] was > 100 µM (inactive) and the GI50 [39] was > 100 µM (inactive). The GI50 [40] was > 100 µM (inactive), the GI50 [41] was > 100 µM (inactive) and the GI50 [42] was > 100 µM (inactive). The GI50 [43] was 43.1 µM (inactive), the GI50 [44] was > 100 µM (inactive) and the GI50 [45] was > 100 µM (inactive). For the same molecule, the GI50 [46] was > 100 µM (inactive), the GI50 [47] was > 100 µM (inactive) and the GI50 [48] was > 100 µM (inactive). The GI50 [49] was greater than 100 µM, the GI50 [50] was > 100 µM (inactive) and the GI50 [51] was > 100 µM (inactive).
`Cc1cc(=O)c2c(O)cc3c(c2o1)CC=C(COC1OC(COC2OC(CO)C(O)C(O)C2O)C(O)C(O)C1O)CO3` (configuration not stated) was tested, and the GI50 [1] was > 100 µM (inactive), the GI50 [2] was > 100 µM (inactive) and the GI50 [3] was > 100 µM (inactive). The GI50 [52] was > 100 µM (inactive), the GI50 [4] was > 100 µM (inactive) and the GI50 [5] was > 100 µM (inactive). The GI50 [6] was > 100 µM (inactive), the GI50 [8] was > 100 µM (inactive) and the GI50 [53] was > 100 µM (inactive). For the same molecule, the GI50 [9] was > 100 µM (inactive), the GI50 [10] was > 100 µM (inactive) and the GI50 [54] was > 100 µM (inactive). The GI50 [11] was > 100 µM (inactive), the GI50 [12] was > 100 µM (inactive) and the GI50 [13] was > 100 µM (inactive). For the same molecule, the GI50 [14] was > 100 µM (inactive), the GI50 [15] was > 100 µM (inactive) and the GI50 [16] was > 100 µM (inactive). The GI50 [17] was > 100 µM (inactive), the GI50 [20] was > 100 µM (inactive) and the GI50 [21] was > 100 µM (inactive). The GI50 [55] was > 100 µM (inactive), the GI50 [22] was > 100 µM (inactive) and the GI50 [23] was > 100 µM (inactive). The GI50 [24] was > 100 µM (inactive), the GI50 [25] was > 100 µM (inactive) and the GI50 [26] was > 100 µM (inactive). The GI50 [27] was > 100 µM (inactive), the GI50 [28] was > 100 µM (inactive) and the GI50 [29] was > 100 µM (inactive). The GI50 [30] was > 100 µM (inactive), the GI50 [32] was > 100 µM (inactive) and the GI50 [56] was > 100 µM (inactive). The GI50 [34] was > 100 µM (inactive), the GI50 [35] was > 100 µM (inactive) and the GI50 [36] was > 100 µM (inactive). The GI50 [37] was > 100 µM (inactive), the GI50 [38] was > 100 µM (inactive) and the GI50 [39] was > 100 µM (inactive). The GI50 [40] was > 100 µM (inactive), the GI50 [41] was > 100 µM (inactive) and the GI50 [42] was > 100 µM (inactive). For the same molecule, the GI50 [43] was > 100 µM (inactive), the GI50 [44] was > 100 µM (inactive) and the GI50 [45] was > 100 µM (inactive). For the same molecule, the GI50 [46] was > 100 µM (inactive), the GI50 [47] was > 100 µM (inactive) and the GI50 [48] was > 100 µM (inactive). The GI50 [49] was greater than 100 µM, the GI50 [50] was > 100 µM (inactive) and the GI50 [51] was > 100 µM (inactive). For the same molecule, the GI50 [57] was > 100 µM (inactive).
With `COc1cc2cccc(/N=C/c3c(Br)ccc(OC)c3OC(C)C)c2cc1OC` the GI50 [1] was 33.7 µM (inactive), the GI50 [2] was 30.5 µM (inactive) and the GI50 [3] was 82.4 µM (inactive). The GI50 [52] was 50.6 µM (inactive), the GI50 [4] was 70.3 µM (inactive) and the GI50 [5] was > 100 µM (inactive). The GI50 [6] was > 100 µM (inactive), the GI50 [8] was 47.8 µM (inactive) and the GI50 [53] was 56.9 µM (inactive). The GI50 [9] was 27.9 µM (inactive), the GI50 [10] was > 100 µM (inactive) and the GI50 [11] was 24.4 µM (inactive). For the same molecule, the GI50 [12] was 31 µM (inactive), the GI50 [13] was 32.4 µM (inactive) and the GI50 [14] was 45.7 µM (inactive). For the same molecule, the GI50 [15] was 27 µM (inactive), the GI50 [17] was 36 µM (inactive) and the GI50 [20] was 65.3 µM (inactive). The GI50 [21] was 44.4 µM (inactive), the GI50 [55] was 38.6 µM (inactive) and the GI50 [22] was 35.2 µM (inactive). The GI50 [23] was 28.3 µM (inactive), the GI50 [24] was 32.8 µM (inactive) and the GI50 [25] was 53.2 µM (inactive). The GI50 [27] was 55.7 µM (inactive), the GI50 [28] was 70.8 µM (inactive) and the GI50 [29] was 30.8 µM (inactive). For the same molecule, the GI50 [30] was 30.1 µM (inactive), the GI50 [31] was 32.2 µM (inactive) and the GI50 [56] was 33 µM (inactive). For the same molecule, the GI50 [33] was 22.1 µM (inactive), the GI50 [34] was > 100 µM (inactive) and the GI50 [35] was > 100 µM (inactive). For the same molecule, the GI50 [36] was 50.1 µM (inactive), the GI50 [37] was 23.8 µM (inactive) and the GI50 [38] was > 100 µM (inactive). For the same molecule, the GI50 [39] was 41.6 µM (inactive), the GI50 [40] was > 100 µM (inactive) and the GI50 [41] was 53.6 µM (inactive). For the same molecule, the GI50 [42] was 74.5 µM (inactive), the GI50 [44] was 26.5 µM (inactive) and the GI50 [45] was > 100 µM (inactive). The GI50 [46] was 59.4 µM (inactive), the GI50 [47] was > 100 µM (inactive) and the GI50 [48] was 25.6 µM (inactive). For the same molecule, the GI50 [58] was > 100 µM (inactive), the GI50 [50] was 25.7 µM (inactive) and the GI50 [51] was 27.1 µM (inactive). The GI50 [57] was 26.8 µM (inactive).
